Columns and labels:
[1] = test system: CYP3A; assay: CYP induction (CYP3A activity in cryopreserved hepatocytes, P450-Glo CYP3A4 assay); format: in vitro ADME; conditions: % of positive control; inducibility by 10 μmol/L rifampicin defined as 100%; hepatocytes treated 3 days
Experimental: Cryopreserved hepatocytes were thawed in a culture medium (In VitroGRO™ CP Medium, Celsis In Vitro Technologies, U.S.A.), and the resultant was added to BioCoat™ Matrigel®™ Matrix Thin-Layer 96 well (Becton, Dickinson and Company, U.S.A.) at a concentration of 40,000 cells/well. After culturing for 24 hours, the culture medium was removed, and replaced with an incubation medium (In VitroGRO™, HI Medium with Torpedo Antibiotic Mix, Celsis In Vitro Technologies, U.S.A.). Cells were cultured for an additional 3 days. The medium was removed on day 4, and the remained cells were treated in the induction medium containing a test compound for 3 days in the presence or absence of 10 μmol/L rifampicin. The induction medium was replaced every day. The test compound addition wells in the presence of 10 μmol/L rifampicin were used to evaluate the inhibitory effect of the test compound on the inducibility of the CYP3A activity by rifampicin. The CYP3A activity was evaluated by measuring luciferin generating amount after the addition of 2 μmol/L luciferin-IPA using IPA P450-Glo™ CYP3A4 assay systems (Promega Corporation, U.S.A.). All cultures were carried out under a humidified environment at 37° C., 5% CO2. The inducibility by rifampicin was defines as 100%, and the inducibility of the test compound (% of positive control) was calculated from the following equation: [(luciferin fluorescence intensity in the absence of rifampicin and the presence of test compound)−(luciferin fluorescence intensity in the absence of rifampicin and test compound)/(luciferin fluorescence intensity in the presence of rifampicin and the absence of test compound)−(Luciferin fluorescence intensity in the absence of rifampicin and test compound)]×100.

[2] = molecular target: T1, CYP3A4 (Homo sapiens, UniProt P08684); assay: CYP3A4 TDI in human liver microsomes (testosterone 6β-hydroxylation); format: in vitro ADME; conditions: 30 μM test compound, 60 min vs 0 min preincubation, solvent acetonitrile
T1 construct: Human liver microsomes purchased from XenoTech, LLC (Lenexa, KS) was used; tissue XenoTech, LLC (Lenexa, KS); host or cells: human liver microsomes
T1 sequence (P08684 whole entry): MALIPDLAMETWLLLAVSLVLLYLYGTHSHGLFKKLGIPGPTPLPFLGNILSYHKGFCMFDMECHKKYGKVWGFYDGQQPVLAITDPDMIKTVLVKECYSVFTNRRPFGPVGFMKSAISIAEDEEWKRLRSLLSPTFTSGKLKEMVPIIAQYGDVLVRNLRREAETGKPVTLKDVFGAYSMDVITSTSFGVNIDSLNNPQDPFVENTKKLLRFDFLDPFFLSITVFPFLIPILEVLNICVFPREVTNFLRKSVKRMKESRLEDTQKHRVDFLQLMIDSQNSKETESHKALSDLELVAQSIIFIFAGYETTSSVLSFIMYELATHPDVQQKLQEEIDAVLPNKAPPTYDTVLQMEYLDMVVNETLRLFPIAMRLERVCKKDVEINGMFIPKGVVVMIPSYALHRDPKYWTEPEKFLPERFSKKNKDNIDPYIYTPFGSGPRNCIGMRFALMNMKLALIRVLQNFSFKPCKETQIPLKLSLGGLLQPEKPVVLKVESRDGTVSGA
Experimental: Human liver microsomes purchased from XenoTech, LLC (Lenexa, KS) was used. Test compounds were dissolved in acetonitrile or DMSO/acetonitrile (1:4, v/v). To a human liver microsomes solution adjusted with phosphate buffer (pH 7.4), the test compound solution was added to obtain a human liver microsomes reaction solution having the test compound concentration of 30 μM. To the human liver microsome reaction solution, NADPH production system was added, and the mixture was preincubated at 37° C. for 0 minutes or 60 minutes. After the preincubation, probe substrate testosterone was added, and testosterone metabolite 6β-hydroxytestosterone was analyzed by LC/MS/MS to evaluate CYP3A4 enzymatic activity.
The enzyme activity (% of control) at each preincubation point was calculated from the following equation: % of control={(activity of test compound addition group)/(activity of test compound non-addition group)}×100.
The remaining activity (% remaining) after 60 minutes of preincubation was calculated from the following equation: Remaining activity (%)={activity after 60 minutes (% of control60 min)}/{activity after 0 minutes (% of control0 min)}×100.

[3] = molecular target: T2, human CaSR (Homo sapiens, UniProt P41180); assay: Human CaSR antagonist activity (NFAT-Luciferase reporter in CHO cells); format: cell-based; conditions: CaCl2 final 1.3 mM, 100% = reference antagonist at 10 μM; for inhibition at 3.3 µM: CHO, read-out: Inhibition rate (%) at 3.3 μM
T2 construct: expressed in transfected cells; host or cells: CHO cells
T2 sequence (P41180 20-1078): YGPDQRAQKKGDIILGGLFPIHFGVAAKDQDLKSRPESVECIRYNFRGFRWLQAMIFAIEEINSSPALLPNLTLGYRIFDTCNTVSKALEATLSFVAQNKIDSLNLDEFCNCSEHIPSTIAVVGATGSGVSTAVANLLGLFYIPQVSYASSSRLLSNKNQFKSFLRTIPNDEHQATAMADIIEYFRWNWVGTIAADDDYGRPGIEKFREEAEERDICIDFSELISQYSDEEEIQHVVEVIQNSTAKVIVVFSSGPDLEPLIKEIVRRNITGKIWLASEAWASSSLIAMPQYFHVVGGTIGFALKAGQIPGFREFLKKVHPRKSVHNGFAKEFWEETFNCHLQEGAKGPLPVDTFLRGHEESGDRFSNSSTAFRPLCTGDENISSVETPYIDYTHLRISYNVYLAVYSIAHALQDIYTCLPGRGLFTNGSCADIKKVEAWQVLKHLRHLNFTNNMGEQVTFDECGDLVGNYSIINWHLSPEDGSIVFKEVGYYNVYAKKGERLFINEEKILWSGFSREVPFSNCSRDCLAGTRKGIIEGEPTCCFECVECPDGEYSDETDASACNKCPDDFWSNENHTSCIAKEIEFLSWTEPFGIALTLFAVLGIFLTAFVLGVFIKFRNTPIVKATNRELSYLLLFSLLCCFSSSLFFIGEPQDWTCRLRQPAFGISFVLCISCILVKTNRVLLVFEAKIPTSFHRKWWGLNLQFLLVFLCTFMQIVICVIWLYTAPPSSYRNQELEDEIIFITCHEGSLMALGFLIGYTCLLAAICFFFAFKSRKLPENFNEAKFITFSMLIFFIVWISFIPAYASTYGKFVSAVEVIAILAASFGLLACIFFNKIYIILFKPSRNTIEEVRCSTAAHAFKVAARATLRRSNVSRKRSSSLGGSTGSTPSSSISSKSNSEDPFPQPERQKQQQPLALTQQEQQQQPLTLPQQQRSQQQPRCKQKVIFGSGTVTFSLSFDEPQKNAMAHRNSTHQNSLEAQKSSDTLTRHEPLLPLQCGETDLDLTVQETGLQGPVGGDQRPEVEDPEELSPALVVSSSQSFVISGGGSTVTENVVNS
Experimental: CaSR antagonist activity measurement was performed using Bright-Glo Luciferase assay system (Promega Corporation). CHO cells in which human CaSR and NFAT-Luciferase reporter gene were forcibly expressed were suspended in MEM alpha (Wako Pure Chemical Industries, Ltd.) containing 10% dialyzed serum (HyClone). The cells in suspension was seeded in 384-well white plate (Corning) at 10,000/20 μL/well, and cultured in an incubator of 37° C., 5% CO2 for one day. A diluent of Test compound was prepared with assay buffer (MEM alpha containing 10 mM HEPES (Life Technologies) and 10% dialysis serum). The diluent was added to the plate at 5 μL/well and allowed to stand at 37° C. for 10 minutes. Further, a diluent of 7.8 mM CaCl2 prepared with assay buffer (final concentration 1.3 mM) was added at 5 μl/well and allowed to stand in an incubator of 37° C., 5% CO2 for 2 hours. Bright-Glo reagents (Promega Corporation) were added at 10 μL/well, and the obtained mixture was stirred for 5 minutes, and then luminescence intensity was measured using Multi-label reader Envision (PerkinElmer, Inc.). The activity (%) of the test compound was calculated with the definitions in which the luminescence intensity when DMSO is added in place of the test compound is defined as 0% inhibition; and the luminescence intensity when (5R)—N-(1-ethyl-1-(4-ethylphenyl)propyl)-2,7,7-trimethyl-5-phenyl-4,5,6,7-tetrahydropyrazolo[1,5-a] Pyrimidine-3-carboxamide at final concentration of 10 μM is added is defined as 100% inhibition.

[4] = test system: aortic banding (TAC) models; conditions: cited from earlier work
[5] = test system: cardiac hypofunction; conditions: dosing after cardiac loading; cited from earlier work
[6] = test system: monocrotaline (MCT)-induced pulmonary hypertension rats; conditions: cited from earlier work
[7] = test system: hypoxia-induced pulmonary hypertension (HPH) mice; conditions: cited from earlier work

CCc1ccc(C(CC)(NC(=O)c2cnn3c2N[C@@H](c2ccccc2)CC3(C)C)C(=O)N[C@H](C(N)=O)C(C)C)cc1 (single isomer, unassigned) [Example 12]
Inducibility [1]: 17.3%
Remaining Activity [2]: 74.3%
inhibition at 3.3 µM [3]: 99%

CCc1ccc(C(CC)(NC(=O)c2cnn3c2N[C@@H](c2ccccc2)CC3(C)C)C(=O)N[C@@H](C)C(N)=O)cc1 (single isomer, unassigned) [Example 4]
Inducibility [1]: 20.8%
Remaining Activity [2]: 95.6%
inhibition at 3.3 µM [3]: 102%

CCc1ccc(C(CC)(NC(=O)c2cnn3c2N[C@@H](c2ccccc2)CC3(C)C)C(=O)N[C@@H](CC)C(N)=O)cc1 (single isomer, unassigned) [Example 6]
Inducibility [1]: 18.6%
Remaining Activity [2]: 80.2%
inhibition at 3.3 µM [3]: 105%

C[C@@H](N[C@H]1CCCC[C@@H]1NC(=O)c1ccc(Cl)cc1)c1cccc2ccccc12 [Calhex231]
Effect on cardiac hypertrophy [4]: improves cardiac hypertrophy
Effect on cardiac hypofunction [5]: fails to improve cardiac hypofunction

CCc1ccc(C(CC)(NC(=O)c2cnn3c2N[C@@H](c2ccccc2)CC3(C)C)C(=O)N[C@@H](CO)C(N)=O)cc1 (stereo partly drawn) [Example 23, (5R)-N-(1-(((2S)-1-Amino-3-hydroxy-1-oxopropan-2-yl)amino)-2-(4-ethylphenyl)-1-oxobutan-2-yl)-7,7-dimethyl-5-phenyl-4,5,6,7-tetrahydropyrazolo[1,5-a]pyrimidine-3-carboxamide]
inhibition at 3.3 µM [3]: 102%

CC(C)(Cc1ccc2ccccc2c1)NC[C@@H](O)COc1cccc(Cl)c1C#N [NPS-2143]
Effect on pulmonary hypertension pathology [6]: suppressed cardiac hypertrophy, elevated right ventricular systolic pressure, fibrosis of cardiac muscle tissue, pulmonary vascular remodeling or the like
Effect on pulmonary hypertension pathology [7]: suppressed cardiac hypertrophy, elevated right ventricular systolic pressure, fibrosis of cardiac muscle tissue, pulmonary vascular remodeling or the like

CCc1ccc(C(CC)(NC(=O)c2cnn3c2N[C@@H](c2ccccc2)CC3(C)C)C(=O)N[C@@H](CC(C)C)C(N)=O)cc1 (stereo partly drawn) [Example 15, (5R)-N-(1-(((2S)-1-Amino-4-methyl-1-oxopentan-2-yl)amino)-2-(4-ethylphenyl)-1-oxobutan-2-yl)-7,7-dimethyl-5-phenyl-4,5,6,7-tetrahydropyrazolo[1,5-a]pyrimidine-3-carboxamide]
Inhibition rate (%) at 3.3 μM [3]: 101%

CCc1ccc(C(CC)(NC(=O)c2cnn3c2N[C@@H](c2ccccc2)CC3(C)C)C(=O)N[C@@H](CC(C)C)C(N)=O)cc1 (stereo partly drawn) [Example 16, (5R)-N-(1-(((2S)-1-Amino-4-methyl-1-oxopentan-2-yl)amino)-2-(4-ethylphenyl)-1-oxobutan-2-yl)-7,7-dimethyl-5-phenyl-4,5,6,7-tetrahydropyrazolo[1,5-a]pyrimidine-3-carboxamide]
Inhibition rate (%) at 3.3 μM [3]: 105%

CCc1ccc(C(CC)(NC(=O)c2cnn3c2N[C@@H](c2ccccc2)CC3(C)C)C(=O)N(C)C)cc1 (stereo partly drawn) [Example 33, (5R)-N-(1-(Dimethylamino)-2-(4-ethylphenyl)-1-oxobutan-2-yl)-7,7-dimethyl-5-phenyl-4,5,6,7-tetrahydropyrazolo[1,5-a]pyrimidine-3-carboxamide]
Inhibition rate (%) at 3.3 μM [3]: 104%

CCc1ccc(C(CC)(NC(=O)c2cnn3c2N[C@@H](c2ccccc2)CC3(C)C)C(=O)N[C@H](C)C(N)=O)cc1 (stereo partly drawn) [Example 22, (5R)-N-(1-(((2R)-1-Amino-1-oxopropan-2-yl)amino)-2-(4-ethylphenyl)-1-oxobutan-2-yl)-7,7-dimethyl-5-phenyl-4,5,6,7-tetrahydropyrazolo[1,5-a]pyrimidine-3-carboxamide]
inhibition at 3.3 µM [3]: 106%

CCc1ccc(C(CC)(NC(=O)c2cnn3c2N[C@@H](c2ccccc2)CC3(C)C)C(=O)N[C@@H](C)C(N)=O)cc1 (stereo partly drawn) [Example 2, (5R)-N-(1-(((2S)-1-Amino-1-oxopropan-2-yl)amino)-2-(4-ethylphenyl)-1-oxobutan-2-yl)-7,7-dimethyl-5-phenyl-4,5,6,7-tetrahydropyrazolo[1,5-a]pyrimidine-3-carboxamide]
inhibition at 3.3 µM [3]: 102%

CCc1ccc(C(CC)(NC(=O)c2cnn3c2N[C@@H](c2ccccc2)CC3(C)C)C(=O)N(C)C)cc1 (stereo partly drawn) [Example 32, (5R)-N-(1-(Dimethylamino)-2-(4-ethylphenyl)-1-oxobutan-2-yl)-7,7-dimethyl-5-phenyl-4,5,6,7-tetrahydropyrazolo[1,5-a]pyrimidine-3-carboxamide]
inhibition at 3.3 µM [3]: 102%

Source: patent US12202832B2, “Heterocyclic compounds having a calcium-sensing receptor antagonistic activity” (TAKEDA PHARMACEUTICAL COMPANY LIMITED, priority 2017, dated 2025)
